Data on four substances can be found in PMC8701324, “Structural Insight into the Mechanism of PALB2 Interaction with MRG15” (Genes, 2021).

Where no end group is shown, it is not given here. The star is where a group is joined. 6xHis = N-terminal hexahistidine tag, N[C@@H](Cc1c[nH]cn1)C(=O)N[C@@H](Cc1c[nH]cn1)C(=O)N[C@@H](Cc1c[nH]cn1)C(=O)N[C@@H](Cc1c[nH]cn1)C(=O)N[C@@H](Cc1c[nH]cn1)C(=O)N[C@@H](Cc1c[nH]cn1)C(=O)*

One experiment concerns MRG15^155−323. The experiment in a line: Ni-NTA pull-down of MRG15 by 6xHis-tagged PALB2 peptides. Format: binding. The settings on record: preliminary qualitative experiment; Ni-NTA agarose, SDS-PAGE. Here is the method: Ni-NTA beads (200 µL of 50% slurry) were equilibrated with Buffer B (25 mM HEPES pH 7.5, 10% glycerol, 2 mM CHAPS and 300 mM NaCl). 1 mL of PALB2 peptide at concentration 0.1 mg·mL^−1 was bound to Ni-NTA beads, and excess peptides were washed off with Buffer B (1 mL). A total of 1 mL of 0.1 mg·mL^−1 MRG15^155−323 was added to the beads and incubated for 30 min. Beads were washed 3 times with Buffer B with 20 mM imidazole. Protein complexes were eluted with Buffer B with 250 mM imidazole. MRG15^155−323 alone, mixed with Ni-NTA beads without any peptide bound, was used as control to eliminate non-specific binding. Samples were analyzed by SDS-PAGE.
Proteins interact with the MRG domain through a conserved FxLP motif. All known structures of MRG complexes reveal significant contributions to the binding of extended regions up- and downstream of the FxLP motif. Flanking regions have low sequence and structural conservation, making it challenging to predict which regions of PALB2 around the FQLP sequence motif (amino acids 612–615) are involved in the interaction. […] The binding affinity of this peptide to MRG15 was measured using the polarization anisotropy method with fluorescein-labeled PALB2^597−630 peptide (FAM-PALB2, Genscript Biotech, Piscataway, NJ, USA). […]

The target of experiment [1] is T1, MRG15^155−323 (MRG domain) (Homo sapiens, UniProt Q9UBU8).
T1 construct: The MRG15 MRG domain, encompassing amino acids 155–323, was cloned into the pET28b^+-based pSMT3 vector; 6xHis-SUMO (N, cleaved yes); made in house; host or cells: E. coli BL21*
In words: Fluorescence anisotropy binding of FAM-PALB2 peptide. Here is the method:
Fluorescence anisotropy binding and competition assays were performed using black 384-well plates (Corning Inc., Corning, NY, USA) and a Synergy Neo2 plate reader (BioTek, Winooski, VT, USA). Binding assays were conducted by serially diluting the MRG15 fragment from 10 µM to 0.6 nM. A 40 µL solution of 20 µM MRG was serially diluted in 20 µL of 25 mM HEPES pH8.0, 1 mM TCEP, 10% DMSO, and 200 mM NaCl. A total of 20 µL of a 20 nM FAM-PALB2^597−630 solution was then added to each well for a final reaction volume of 40 µL and a final PALB2 concentration of 10 nM. The plate was shaken for 2 min and incubated for 15 min. Fluorescence anisotropy was measured with 485/20 nm excitation and 528/20 nm emission using Gen5.0 (BioTek) software. Kd was calculated with GraphPad Prism software by fitting the data with a non-linear regression analysis using a standard four-parameter logistic equation to identify Kd. […] R^2 is determined by the Prism software by computing the sum of the squares of the distances of the points from the best-fit curve determined by a nonlinear regression model.
Proteins interact with the MRG domain through a conserved FxLP motif. […] The binding affinity of this peptide to MRG15 was measured using the polarization anisotropy method with fluorescein-labeled PALB2^597−630 peptide (FAM-PALB2, Genscript Biotech, Piscataway, NJ, USA). […]
(In general: Polarisation of emitted light reports the rotation of a fluorescent probe.)

The target of a further experiment is T2, MRG15 (MRG domain) (Homo sapiens, UniProt Q9UBU8).
T2 construct: The MRG15 MRG domain, encompassing amino acids 155–323, was cloned into the pET28b^+-based pSMT3 vector; 6xHis-SUMO (N, cleaved yes); made in house; host or cells: E. coli BL21*
In words: Fluorescence anisotropy competition assay: displacement of WT FAM-PALB2. Format: binding. The settings on record: competition with WT FAM-PALB2, relative to WT. How it is done:
For competition assays, mutant PALB2^597−630 peptides (Genscript Biotech, Piscataway, NJ, USA) were dissolved in DMSO and serially diluted from 10 µM to 0.6 nM in 20 µL of 25 mM HEPES pH 8.0, 1 mM TCEP, 10% DMSO, and 200 mM NaCl. A total of 40 nM MRG15 was mixed with 10 nM PALB2-FAM and incubated for 15 min at room temperature (RT). 20 µL of the MRG15 with FAM-PALB2 was then added to each well, resulting in a final concentration of […]. The total reaction volume was 40 µL. The plate was then shaken for 2 min and incubated for 15 min before the fluorescence anisotropy was measured as above. The inhibition constant Ki was calculated similarly to Kd (above).
Mutations of several residues in the MRG-binding region of PALB2 were found in breast cancer patients, including Asp616His, Pro615Ser and Pro621Thr mutations (Figure 5A,B). We analyzed the effect of these mutations on PALB2 interaction with MRG by a competition assay (Figure 5C,D). An MRG complex with 10 nM WT PALB2 peptide was formed, and the comparative affinity of mutants (Ki) was assayed by the dissociation rate of FAM-PALB2 from MRG15 upon titration by a mutant peptide. In addition, the contribution of core hydrophobic amino acids was assayed by alanine substitution. None of the peptides with a core hydrophobic amino acid substitution were able to compete with wtPALB2 binding. […] Substitution of Asp616 with histidine reduced the affinity by a factor of 2. […] Substitution of this proline in the middle of an α-helical turn may increase flexibility and result in a tighter binding of αH2 to the hydrophobic pocket of MRG.

T2 sequence (Q9UBU8 194-362): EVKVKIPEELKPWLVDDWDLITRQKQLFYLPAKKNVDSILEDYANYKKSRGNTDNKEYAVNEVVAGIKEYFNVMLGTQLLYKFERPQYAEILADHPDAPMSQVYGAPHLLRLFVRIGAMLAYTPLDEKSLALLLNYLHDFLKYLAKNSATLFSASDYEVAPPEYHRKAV
T1 sequence (Q9UBU8 194-362): as above

With “597 630: PALB2 fragment encompassing amino acids 597–630 with the N-terminal 6xHis tag; crystallized with MRG15 (PDB ID 7S4A) (6xHis-MLSLKQLLSFLSITDFQLPDEDFGPLKLEKVKSC)”, in the experiment with MRG15^155−323, the “complex formation with MRG15 in pull-down” value is recorded as “sufficient for the formation of a stable complex”. Further, the “binding affinity to MRG domain” value in experiment [1] is reported as “nanomolar affinity”. As to “MLSLKQLLSFLSITDFQLPDEDFGTLKLEKVKSC [P621T]”, at MRG15 (MRG domain), the “effect on binding affinity” value is “increased the binding affinity”. As to “MLSLKQLLSFLSITDFQLPHEDFGPLKLEKVKSC [D616H]”, the “factor by which affinity is reduced vs WT” value at MRG15 (MRG domain) ('by a factor of') is 2. For the substance “MLSLKQLLSFLSITDFQLSDEDFGPLKLEKVKSC [P615S]”, the “reduction in binding affinity vs WT” value at MRG15 (MRG domain) was 5 fold.
